Laboratory results reported in patent US20080113908A1, “Use of CRF receptor agonists for the treatment or Prophylaxis of diseases, for example Neurodegenerative diseases” (SmithKline Beecham plc, priority 2000, published 2008).
Ends that are not written are not given here.

System: hippocampal neurones
Assay: Amyloid-β peptide (25-35) toxicity, survival by counting viable neurons (FIGS. 8, 9)
Format: cell-based
Conditions: for neuronal death: 10-20 μM
Description: In order to test whether CRF receptor agonists protect neurones from death caused by Aβ, the following experiment was conducted (FIGS. 8 and 9). Hippocampal neurons from embryonic day 18 rat were cultured in serum-free medium (neurobasal/B27) for 9 days. The culture methods are described on page 48 of S. D. Skaper et al., J. Neurochem., 2001, 76, 47-55. Cells were then treated with amyloid-β peptide (fragment 25-35) (Sigma, cat. no. A-4559, sequence Gly-Ser-Asn-Lys-Gly-Ala-Ile-Ile-Gly-Leu-Met) at 10 μM plus the indicated CRF receptor agonist at the indicated concentration, in the same culture medium. […] Cell survival was assessed after 3 days, by fixing the cultures and counting microscopically viable neurons. Values are expressed relative to numbers of surviving neurons in untreated cultures (=100).

Row | Sequence | neuronal death (after 2-3 days) | neuronal death (after 1 day of exposure) | neurotoxicity of peptide (20 μM, results not shown)
1 | GSNKGAIIGLM [Aβ, Gly-Ser-Asn-Lys-Gly-Ala-Ile-Ile-Gly-Leu-Met] | cell death was visible | no visible neuronal death | –
2 | MLGIIAGKNSG [reverse β-amyloid sequence (35-25)] | – | – | not to be neurotoxic
